Data on 2 compounds can be found in PMC7023064, “Design, Synthesis, and Evaluation of Novel 2-Methoxyestradiol Derivatives as Apoptotic Inducers through an Intrinsic Apoptosis Pathway” (Biomolecules, 2020).

Assay [1] has as its system normal human liver L-O2 cell lines. The assay is described as follows: MTT cytotoxicity assay, L-O2. The note with it: mean ± SD of three experiments, No = No inhibition detected. The format is cell-based. As to the method: Human breast adenocarcinoma MCF-7 cell lines, human breast cancer MDA-MB-231 cell lines, and the normal human liver L-O2 cell lines were provided by Nanjing KeyGen Biotech Co. Ltd. (Nanjing, China). MCF-7 cells were cultured in a base medium (90% RPMI-1640 and 10% FBS) at 37 °C, 5% CO2 and a saturated humidity atmosphere. MDA-MB-231 cells were cultured in a base medium (90% […] and 10% FBS) at 37 °C, 5% CO2 and a saturated humidity atmosphere. L-O2 cells were cultured in a base medium (90% DMEM and 10% FBS) at 37 °C, 5% CO2 and a saturated humidity atmosphere.
The cytotoxicity of the tested compounds was determined using the 3-(4,5-dimethyl-2-thiazolyl)-2,5-diphenyl-2-H-tetrazolium bromide (MTT) assay. Cells were seeded in 96-well plates and incubated in a 5% CO2 incubator at 37 °C. When the cells adhered, compounds at different concentrations were added to every well. After incubation for another 72 h, MTT solution (5 mg/mL) was added into each well and cells were incubated for an additional 4 h. The viable cells were stained with MTT and scanned with an electrophotometer at 570 nm. Each concentration treatment was done in triplicate wells. The half maximal inhibitory concentration (IC50) values were estimated by fitting the inhibition data to a dose-dependent curve using a logistic derivative equation.
On the technique in general: Tetrazolium dyes change colour on reduction, which living cells bring about.

In assay [2] the test system is MCF-7 cells. The assay is described as follows: Cell cycle assay (PI staining, flow cytometry). Format: cell-based, human. The note with it: 72 h. The method, then:
MCF-7 cells at a density of 5 × 10^5 cells/well were seeded in 6-well plates and incubated at 37 °C in a humidified 5% CO2 incubator for 24 h. Exponentially growing cells were treated with compound 11/12a (0, 5, 10, and 20 μM) for 72 h. Then, the cells were harvested and fixed with 70% precooled ethanol at 4 °C for 12 h. Later, the cells were centrifuged and washed with cold PBS. 100 μL of RNase A was added, and then bathed in water for 30 min at 37 °C. Subsequently, cells were stained by 400 μL of propidium iodide (PI) for 30 min at 4 °C in the dark. Finally, cellular DNA was measured using a flow cytometry (FACS Calibur Becton-Dickinson, San Jose, California, USA).

Assay [3] relates to MCF-7 breast cancer cells. Kind of assay: Real-time polymerase chain reaction of apoptosis genes. The format is cell-based, human. Particulars: 5, 10, and 20 μM, GAPDH as control. The method, then:
RNA was isolated using Trizol Reagent (Invitrogen, Carlsbad, California, USA). cDNA was made via the manufacturer’s instructions with the first chain of a cDNA synthesizing kit (Fermentas, Lithuania). Real-time polymerase chain reaction (RT-PCR) was performed on a Da An Gene DA7600 Real Time machine using Da An Gene incorporation (ZhongShan, China). The 2^−ΔΔCT method was used to calculate the relative levels of gene expression using Da An Gene DA7600 QPCR software v3.00 (Da An Gene). The GAPDH (human) expression was used as the internal control. A standard melting-curve cycle was used to confirm the quality of amplification. The reactions were performed in triplicate for each sample. The gene-specific primers were designed with the Primer5 BLAST software by GenScript Co., Ltd. (Nanjing, China): • 1 GAPDH (human): primer (122 bp), • Sense primer: 5′ […] 3’ • Antisense primer: 5′ […] 3′ • 2 Apaf-1 (human): primer (134 bp), • Sense primer: 5′ […] 3′ • Antisense primer: 5′ […] 3′ • 3 Bax (human): primer (112 bp), • Sense primer: 5 ′TTGCTTCAGGGTTTCATCC 3′ • Antisense primer: 5′ […] 3′ • 4 Bcl-2 (human): primer (116 bp), • Sense primer: 5′ […] 3′ • Antisense primer: 5′ […] 3′ • 5 Bcl-xL (human): primer (124 bp), • Sense primer: 5′ […] 3′ • Antisense primer: 5′ […] 3′ • 6 Caspase-3 (human): primer (131 bp), • Sense primer: 5′ […] 3′ • Antisense primer: 5′ […] 3′ • 7 Caspase-8 (human): primer (122 bp), • Sense primer: 5′ […] 3′ • Antisense primer: 5′ […] 3′ • 8 Caspase-9 (human): primer (136 bp), • Sense primer: 5′ […] 3′ • Antisense primer: 5′ […] 3′ • 9 Cytochrome c (human): primer (127 bp), • Sense primer: 5′ […] 3′ • Antisense primer: 5′ […] 3′

Assay [4] deals with MCF-7 cells. The assay is described as follows: Western blotting of apoptosis proteins. Particulars: 0, 5, 10, and 20 µM, 72 h, β-actin as control. Format: cell-based, human. As to the method: After the treatment of MCF-7 cells with compound 11/12a (0, 5, 10, and 20 μM) for 72 h, the total proteins of MCF-7 cells were extracted and their concentrations were balanced to the same level by BCA protein assay reagent (KGP902, KeyGen Biotech Co. Ltd., Nanjing, China), followed by 8 min of protein denaturation with SDS loading buffer at 100 °C. Proteins were separated by sodium dodecyl sulfate-polyacrylamide electrophoresis (SDS-PAGE) and transferred onto polyvinylidene fluoride (PVDF) membranes, which were blocked with 5 mL of 5% fat-free dry milk in 1× Tris-buffered saline (TBS) containing 0.05% Tween 20 for 2 h. Then the membranes were incubated with Apaf-1 (Abcam, no: ab234436), Bax (Abcam, no: ab32503), Bcl-2 (Abcam, no: ab692), Bcl-xL (Abcam, no: ab32370), caspase-3 (Abcam, no: ab184787), caspase-8 (Abcam, no: ab25901), caspase-9 (Abcam, no: ab219590), cytochrome c (Abcam, no: ab133504), and β-actin (Abcam, no: ab8226) antibodies at 4 °C overnight, followed by treatment with secondary horseradish-peroxidase-conjugated anti-rabbitIgG (KeyGen Biotech Co. Ltd., no: KGAA35) for 2 h. Membranes were finally scanned in a ChemiDoc MP Imaging System (Bio-Rad) after 2 min incubation in Clarity Western ECL Substrate (Bio-Rad).

Assay [5] relates to MCF-7 cells. Kind of assay: Hoechst 33258 staining. Format: cell-based, human. Particulars: 0, 5, 10, and 20 μM, 72 h; at higher concentrations. As to the method:
The nuclear morphological changes and apoptotic effects induced by compound 11/12a were detected using Hoechst 33,258 staining. Cells grown on a sterile cover slip were treated with 11/12a for 72 h in six-well tissue culture plates. Cells were collected and mounted on a slide, fixed for 30 min with 4% paraformaldehyde, and washed three times with PBS. Then, cells were stained with Hoechst 33,258 (2 mg/mL in PBS) for 10 min at room temperature in the dark. The cells were subsequently washed three times with PBS and observed with a fluorescence microscope.

Usually IC50 stands for the concentration that inhibits the measured activity by half. For the compound `COc1cc2c(cc1O)CC[C@@H]1[C@@H]2CC[C@]2(C)[C@@H](OCCCCCCCCn3c(=O)ccn([C@@H]4O[C@H](CO)[C@@H](O)[C@H]4O)c3=O)CC[C@@H]12` [Compound 11, 17 β-[8-(1-β-D-Ribofuranosyluracil-3-yl)-Octyloxy]-2-Methoxy-Estra-1,3,5(10)-Triene-3-ol], the half-maximal inhibitory concentration (IC50) in assay [1] (Homo sapiens, L02, 72 h) is greater than 100 µM. Moreover, in the assay with MCF-7 cells [2] (5 μM), the “cells at the G2 phase” value came out at 8.32%. Further, in the assay with MCF-7 cells [2] (10 μM), the “cells at the G2 phase” value is 15.48%. For the same compound, in the assay on MCF-7 cells [2] (20 μM), the “cells at the G1 phase” value is 42.84% and the “cells at the G2 phase” value turned out to be 24.11%. Besides, in assay [3], the “mRNA expression levels of Apaf-1, Bax, caspase-3, caspase-8, caspase-9, and cytochrome c” value is reported as “upregulated”; the “mRNA expression levels of Bcl-2 and Bcl-xL” value is on record as “downregulated”. Moreover, in the assay with MCF-7 cells [4], the “protein expressions of Apaf-1, Bax, caspase-3, caspase-8, caspase-9, and cytochrome c” value is on record as “increased in a dose-dependent manner”; the “protein expressions of Bcl-2 and Bcl-xL” value is reported as “obviously decreased”. Further, the “Hoechst 33258 fluorescence / cell morphology” value in the assay with MCF-7 cells [5] was “stronger blue fluorescence”.
For the compound “17 β-[6-(Uracil-3-yl)-Hexyloxy]-2-Methoxy-Estra-1,3,5(10)-Triene-3-ol [Compound 12a]”, half-maximal inhibition in assay [1] (72 h) (IC50) required 69.3 ± 4.37 µM. Also, in the assay on MCF-7 cells [2] (5 μM), the “cells at the G2 phase” value is 7.97%. For the same compound, in the assay on MCF-7 cells [2] (10 μM), the “cells at the G2 phase” value is reported as 13.93%. In addition, in the assay on MCF-7 cells [2] (20 μM), the “cells at the G1 phase” value was determined as 54.41% and the “cells at the G2 phase” value was 22.46%. Further, in assay [3], the “mRNA expression levels of Apaf-1, Bax, caspase-3, caspase-8, caspase-9, and cytochrome c” value was “upregulated”; the “mRNA expression levels of Bcl-2 and Bcl-xL” value is given as “downregulated”. In addition, in the assay with MCF-7 cells [4], the “protein expressions of Apaf-1, Bax, caspase-3, caspase-8, caspase-9, and cytochrome c” value is “increased in a dose-dependent manner”; the “protein expressions of Bcl-2 and Bcl-xL” value is “obviously decreased”. Besides, the “Hoechst 33258 fluorescence / cell morphology” value in the assay on MCF-7 cells [5] is reported as “stronger blue fluorescence”.
